Reference: patent US20220023325A1, “SPECIFIC TLR4 ANTAGONIST IN THE TREATMENT OF MULTIPLE MYELOMA” (Etablissement Français du Sang, priority 2016, published 2022)
Values joined by “and” are separate entries in the source; they are usually repeats but may differ in a detail not shown here. Equal values may be shown once.

What was measured:
[1] = target: T1, TLR4 (Homo sapiens, UniProt O00206+Q9Y6Y9); assay: Adhesion molecule expression on healthy donor MSCs after TLR4 stimulation; assay type: cell-based
T1 construct: the TLR4 molecule is overexpressed both at the transcriptional level (mRNA) and at the protein level in the MM MSCs; endogenous in cells; host or cells: primary mesenchymal stromal cells (MSCs) of multiple myeloma patients
Source text: FIG. 3: Expression of different adhesion molecules involved in the interaction with MM plasma cells (CD49d, CD49e, CD54 and CD106) on the surface of MSCs of healthy subjects and patients with MM, stimulated or not with LPS. *p≤0.05**p≤0.01 FIG. 5: Expression of CD54 by MSCs from healthy donors or from patients with MM, whether stimulated or not with Hsp70. p*≤0.05 The inventors then studied the differential activation of TLR4 in the MSCs of healthy donors or MM patients. They analyzed the effect of stimulation by LPS, the TLR4 reference ligand widely described in the literature, on the expression of several adhesion molecules (CD49d/VLA-4, CD49e/VLA-5, CD54/ICAM-1 and CD106/VCAM-1) involved in the interaction between MSCs and malignant plasma cells. The level of expression (MFI: mean fluorescence intensity) of each molecule is shown in the histogram of FIG. 3.

[2] = target: T1, TLR4; assay: Adhesion molecule expression on MM patient MSCs after TLR4 stimulation; assay type: cell-based
Source text: FIG. 3: Expression of different adhesion molecules involved in the interaction with MM plasma cells (CD49d, CD49e, CD54 and CD106) on the surface of MSCs of healthy subjects and patients with MM, stimulated or not with LPS. *p≤0.05**p≤0.01
FIG. 5: Expression of CD54 by MSCs from healthy donors or from patients with MM, whether stimulated or not with Hsp70. p*≤0.05
The inventors then studied the differential activation of TLR4 in the MSCs of healthy donors or MM patients. They analyzed the effect of stimulation by LPS, the TLR4 reference ligand widely described in the literature, on the expression of several adhesion molecules (CD49d/VLA-4, CD49e/VLA-5, CD54/ICAM-1 and CD106/VCAM-1) involved in the interaction between MSCs and malignant plasma cells. The level of expression (MFI: mean fluorescence intensity) of each molecule is shown in the histogram of FIG. 3.
In order to further investigate the role of TLR4 in the context of MM and to move closer to pathophysiology, the inventors stimulated MSCs with Hsp70, an endogenous ligand of TLR4 actively released in the MM microenvironment and secreted by the cell line of MM MOLP-6 (up to 200 ng/ml) (FIG. 4). In addition, this endogenous ligand has been described in the literature to have a chemoprotective role for MM malignant plasma cells (Nimmanapalli et al (2008) Br. Haematol 142: 551-561). […] Indeed Hsp-70 is a monomeric molecule and therefore induces a less important stimulation than LPS (multimeric). Nevertheless, once again, the MM MSCs respond better than the healthy MSCs.

[3] = target: T1, TLR4; assay: Secretion of soluble factors (IGF-1, IL6) by healthy donor MSCs after TLR4 stimulation; assay type: cell-based
Source text: (§1) FIG. 6: Secretion of IL6 by MSCs from healthy donors or from patients with MM, stimulated or not with LPS.
(§2) The inventors also evaluated the effect of TLR4 stimulation on the soluble IGF-1 and IL6 factors involved in the survival and proliferation of myeloma cells.

[4] = target: T1, TLR4; assay: Secretion of soluble factors (IGF-1, IL6) by MM patient MSCs after TLR4 stimulation; assay type: cell-based
Source text: as §1
FIG. 7: Secretion of IL6 by MSCs of healthy donors or from MM patients, whether stimulated or not with Hsp70.
as §2

[5] = system: MOLP-6 cells; assay: MOLP-6 myeloma cells cultured alone, treated with C34; assay type: cell-based, human; conditions: MOLP-6 alone, C34 1 μM or 10 μM
Experimental: (§3) FIG. 9: Number of myeloma cells (MOLP-6)after culture of MOLP-6 alone untreated (NT) or treated with 1 μM or 10 μM of C34 (TLR4 antagonist), or in coculture with a stroma of MSCs from healthy or MM donors, untreated or treated with 1 μM or 10 μM C34.
(§4) To evaluate the role of TLR4 in the MSC/myeloma cell interaction, the inventors used a specific TLR4 antagonist, the C34 compound, marketed by Tocris, and a stroma-dependent myeloma cell line, the MOLP-6 line. Some studies have used stroma-independent myeloma cell lines such as MM1S or RPM18226. In this study, in order to approach the pathology and mimic real interactions between MSC and plasma cells, the inventors used a stroma-dependent cell line for its proliferation. Indeed, during MM (in the establishment and maintenance phases of the disease), myeloma cells strongly adhere to the MSCs of the stroma, which gives chemoresistance and survival signals favoring the evolution of MM.
(§5) Then they treated the healthy MSCs and MM with the C34 before and in co-culture with the MOLP-6. With the healthy stroma, the C34 antagonist (at 1 and 10 μM) has no effect on the growth support of MOLP-6, whereas with the stroma of MM, the TLR4 antagonist affects growth of MOLP-6 cells at the two doses used (33% decrease, FIG. 9).

[6] = system: MOLP-6 cells; assay: MOLP-6 growth in coculture with stroma of healthy donor MSCs; assay type: cell-based, human
Experimental: as §3, §4
as §5, with “9). […]” for “9).”
(§6) After 7 days of culture, they calculated the percent inhibition of plasmocyte growth (FIGS. 11 and 12).

[7] = system: MOLP-6 cells; assay: MOLP-6 growth in coculture with stroma of MM patient MSCs; assay type: cell-based, human
Experimental: as §3, §4, §5
The inventors co-cultured MSCs from 4 healthy donors (H) or 5 patients suffering from MM (MYE) as well as stroma-dependent MOLP-6 plasma cells: • without treatment (NT) • in the presence of C34 alone at 1 μM (C34 1 μM), • in the presence of melphalan alone at 100 nM (Mel 100 nM), • in the presence of lenalidomide alone at 100 nM (Len 100 nM), • in the presence of a combination of C34 at 1 μM and melphalan at 100 nM (Mel 100 nM+C34 1 μM), or • in the presence of a combination of C34 at 1 μM and lenalidomide at 100 nM (Len 100 nM+C34 1 μM).
as §6

[8] = MM MSCs, stimulation with Hsp70

T1 sequence (O00206 24-839): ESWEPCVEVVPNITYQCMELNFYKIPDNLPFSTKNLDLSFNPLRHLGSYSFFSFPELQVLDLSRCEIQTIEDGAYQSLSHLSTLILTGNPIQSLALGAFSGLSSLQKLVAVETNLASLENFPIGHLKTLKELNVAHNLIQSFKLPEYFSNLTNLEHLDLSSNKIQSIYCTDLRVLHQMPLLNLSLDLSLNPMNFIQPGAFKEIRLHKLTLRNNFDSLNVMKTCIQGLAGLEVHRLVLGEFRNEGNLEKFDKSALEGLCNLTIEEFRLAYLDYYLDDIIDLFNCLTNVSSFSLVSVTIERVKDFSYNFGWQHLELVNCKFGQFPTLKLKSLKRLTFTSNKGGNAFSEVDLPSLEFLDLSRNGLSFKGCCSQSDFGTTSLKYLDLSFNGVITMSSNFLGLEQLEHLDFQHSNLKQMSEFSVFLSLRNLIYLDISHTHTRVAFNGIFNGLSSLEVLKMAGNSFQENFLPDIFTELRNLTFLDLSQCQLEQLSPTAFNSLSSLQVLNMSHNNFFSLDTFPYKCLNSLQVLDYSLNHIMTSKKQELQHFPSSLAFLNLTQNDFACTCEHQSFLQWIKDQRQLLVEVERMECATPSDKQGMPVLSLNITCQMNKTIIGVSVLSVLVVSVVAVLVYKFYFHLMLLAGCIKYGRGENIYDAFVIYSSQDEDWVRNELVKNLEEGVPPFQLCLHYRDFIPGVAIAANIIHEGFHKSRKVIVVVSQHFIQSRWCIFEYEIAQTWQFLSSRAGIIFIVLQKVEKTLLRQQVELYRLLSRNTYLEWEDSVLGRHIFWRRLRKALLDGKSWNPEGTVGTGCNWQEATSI
T1 sequence (Q9Y6Y9 17-160 limits assumed): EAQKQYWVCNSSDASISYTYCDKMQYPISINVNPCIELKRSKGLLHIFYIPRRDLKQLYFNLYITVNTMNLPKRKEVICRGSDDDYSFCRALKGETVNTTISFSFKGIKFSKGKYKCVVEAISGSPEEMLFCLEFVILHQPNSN

Molecule: lipopolysaccharide [LPS]
- expression of CD49e ([1]; healthy MSC, LPS stimulation): significantly increased
- expression of CD106 ([1]; healthy MSC, LPS stimulation): no effect
- expression of CD49d ([1]; healthy MSC, LPS stimulation): no effect
- CD54 MFI ([1]; healthy MSCs after LPS stimulation (basal 9.6)): 148.7 and 149
- expression of CD49e ([2]; MM MSC, LPS stimulation): significantly increased
- expression of CD106 ([2]; MM MSC, LPS stimulation): no effect
- expression of CD49d ([2]; MM MSC, LPS stimulation): no effect
- CD54 MFI ([2]; MSCs of MM after LPS stimulation (basal 4.3)): 215.9 and 216
- secretion of IL6 ([3]; healthy MSCs after LPS stimulation (unstimulated 0.02)): 0.1 pg/cell
- IGF-1 secretion ([3]; healthy MSCs, LPS stimulation): no effect
- IGF-1 secretion ([4]; MM MSCs, LPS stimulation): no effect
- secretion of IL6 ([4]; MSCs of MM after LPS stimulation (unstimulated 0.08)): 0.7 pg/cell

Molecule: CC(=O)N[C@H]1[C@@H](OC(C)C)O[C@H](COC(C)=O)[C@@H](OC(C)=O)[C@@H]1OC(C)=O [C34]
- direct effect on MOLP-6 cells (number of myeloma cells) [5]: did not directly affect
- effect on inhibition of plasmocyte growth in the presence of chemotherapeutic agents ([6]; healthy MSC/MOLP-6 cocultures, C34 1 μM + melphalan or lenalidomide 100 nM, 7 days): no significant synergistic effect
- effect on the growth support of MOLP-6 ([6]; healthy stroma, C34 at 1 and 10 μM): no effect
- effect on inhibition of proliferation of MM plasmocytes in combination with lenalidomide ([7]; MM MSC coculture, C34 1 μM + lenalidomide 100 nM, 7 days): synergistic effect
- effect on inhibition of proliferation of MM plasmocytes in combination with melphalan ([7]; MM MSC coculture, C34 1 μM + melphalan 100 nM, 7 days): synergistic effect
- decrease of growth of MOLP-6 cells ([7]; stroma of MM, C34 at the two doses used (1 and 10 μM)): 33%

Molecule: Hsp70: endogenous ligand of TLR4, chaperone heat shock protein 70
- CD54 expression [2, 8]: significantly increased
- IL6 secretion [4, 8]: increases
